Consider two molecules from US7067251B2 (priority 2000, dated 2006).

Series [1] concerns vEL/tk. Format: cell-based, vaccinia virus.
For series [2], the system named is v7.5/tk. Type of series: cell-based, vaccinia virus.
Series [3] relates to vaccinia WR. Type of series: cell-based, vaccinia virus.
Series [4] relates to Hutk^− cell line.
Series [5] deals with naïve T cells. Type of series: cell-based, Human.
Series [6] concerns Mouse splenic T cells activated by plate bound anti-CD3 antibody. Particulars: cited from earlier work.

`O=c1[nH]c(=O)n([C@H]2C[C@H](O)[C@@H](CO)O2)cc1Br` [bromodeoxyuridine]: in series [1], the “Concentration sufficient to inhibit plaque formation” value stood at 125 mM and the Plaque formation result is given as “an equal number of plaques, albeit much smaller in size”. In series [2], the “Concentration sufficient to inhibit plaque formation” value came to 125 mM. Moreover, the “Concentration sufficient to interfere with the ability to plaque” value in series [3] is on record as 25 mM. The “Viability of the cells” value in series [4] is given as “does not interfere with the viability of the cells”.
As to `Cn1cc(C2=C(c3cn(CCCN)c4ccccc34)C(=O)NC2=O)c2ccccc21` [Bis VIII, Bisindolylmaleimide VIII], the “Killing of the total number of T cells” value in series [5] came out at 95%. Further, the T cell death in series [6] was about 100%.
